The structures appear in SMILES notation. ± gives the expanded uncertainty stated by the source.

For the first series the following is noted: Liquid; Capillary flow.
Consider `COC(=O)CC(C)=O` [methyl 3-oxobutanoate], for which the Critical pressure came out at 3830 ± 140 kPa and the Critical temperature worked out at 652.8 ± 4 K.

On to `COC(=O)c1ccc(C(=O)OC)cc1` [dimethyl 1,4-benzenedicarboxylate], for which the Critical pressure was 2760 ± 400 kPa and the Critical temperature amounted to 779 ± 20 K.

On to `CC(C)C(O)C(C)(C)CO` (configuration not stated) [2,2,4-trimethyl-1,3-pentanediol], for which the Critical pressure is 3110 ± 140 kPa and the Critical temperature worked out at 708.2 ± 3.2 K.

For the molecule `COCC(C)=O` [1-methoxy-2-propanone], the Critical pressure is reported as 4210 ± 90 kPa and the Critical temperature stood at 584 ± 2 K.

As to `c1cc[nH]c1` [pyrrole], the Critical pressure is 6300 ± 170 kPa and the Critical temperature was determined as 633.3 ± 3 K.

For the molecule `SC1CCCCC1` [cyclohexanethiol], the Critical pressure came to 3970 ± 160 kPa and the Critical temperature is 669.6 ± 4 K.

Turning to `CN1CCCCC1` [N-methylpiperidine], the Critical pressure amounted to 3660 ± 160 kPa and the Critical temperature is 581.5 ± 3.6 K.

Regarding `Cc1cccs1` [2-methylthiophene], the Critical pressure came to 4620 ± 140 kPa and the Critical temperature is on record as 602 ± 2 K.

For `C=CC(=O)OC` [methyl propenoate], the Critical pressure came out at 3990 ± 140 kPa and the Critical temperature is 532.7 ± 2.6 K.

For the molecule `CC(=O)OCCOC(C)=O` [ethylene diacetate], the Critical pressure amounted to 3080 ± 100 kPa and the Critical temperature is 654.9 ± 3 K.

`C=CC(=O)OCC(CC)CCCC` (configuration not stated) [2-ethylhexyl 2-propenoate]: the Critical pressure amounted to 2080 ± 140 kPa and the Critical temperature was 672.5 ± 6 K.

On to `CCOC(=O)OCC` [diethyl carbonate], for which the Critical pressure is given as 3080 ± 120 kPa and the Critical temperature worked out at 578.2 ± 3 K.

As to `CC(=O)N(C)C` [N,N-dimethylethanamide], the Critical pressure turned out to be 4260 ± 120 kPa and the Critical temperature is listed as 660.2 ± 2.6 K.

Take `COCCOCCOCCOCCOC` [2,5,8,11,14-pentaoxapentadecane]: the Critical pressure was 1980 ± 120 kPa and the Critical temperature was 726.6 ± 4 K.

On to `Sc1ccccc1` [benzenethiol], for which the Critical pressure is listed as 4650 ± 180 kPa and the Critical temperature amounted to 689.2 ± 4 K.

Regarding `C=C(C)CC(C)(C)C` [2,4,4-trimethyl-1-pentene], the Critical pressure came to 2730 ± 120 kPa and the Critical temperature turned out to be 550.7 ± 4 K.

With `COC(C)OC` [3-methyl-2,4-dioxapentane], the Critical pressure was found to be 4300 ± 260 kPa and the Critical temperature is 511.6 ± 5.6 K.

For `C=C(C)OC(C)=O` [1-methylvinyl ethanoate], the Critical pressure stood at 3630 kPa and the Critical temperature is recorded as 549.8 ± 2 K.

Regarding `CC(C)CCCC(C)CCCC(C)CCCCC(C)CCCC(C)CCCC(C)C` (configuration not stated) [2,6,10,15,19,23-hexamethyltetracosane], the Critical pressure was determined as 657 ± 67 kPa and the Critical temperature came to 805 ± 20 K.

Take `C1CCNCC1` [piperidine]: the Critical pressure came to 4560 ± 140 kPa and the Critical temperature is given as 594.4 ± 3 K.

Turning to `C=CC(=O)OCC` [ethyl propenoate], the Critical pressure was 3710 ± 100 kPa and the Critical temperature is on record as 555.2 ± 2 K.

In the case of `COCCC#N` [3-methoxypropanenitrile], the Critical pressure was 4040 ± 120 kPa and the Critical temperature came out at 650.9 ± 2.4 K.

On to `CNC(C)=O` [N-methylacetamide], for which the Critical pressure was 5090 ± 200 kPa and the Critical temperature amounted to 707.4 ± 2 K.

For `CN(C)C=O` [dimethylformamide], the Critical pressure turned out to be 4720 ± 140 kPa and the Critical temperature is listed as 650.6 ± 3 K.

As to `OCC1CCC(CO)CC1` (configuration not stated) [1,4-bis(hydroxymethyl)cyclohexane], the Critical pressure amounted to 4000 ± 240 kPa and the Critical temperature was found to be 800.3 ± 4 K.

On to `COC(C)CO` (configuration not stated) [2-methoxy-1-propanol], for which the Critical pressure was 4310 ± 140 kPa and the Critical temperature is recorded as 596.6 ± 3 K.

Turning to `C=C(C)C(=O)OC` [methyl methacrylate], the Critical pressure was 3750 ± 100 kPa and the Critical temperature was found to be 557.9 ± 1.6 K.

With `CNC=O` [N-methylformamide], the Critical pressure is 6080 ± 260 kPa and the Critical temperature is 715.6 ± 4 K.

In the case of `Cn1cccc1` [N-methylpyrrole], the Critical pressure was 4210 ± 140 kPa and the Critical temperature is given as 587.4 ± 3 K.

Regarding `C=C(C)C(=O)OCC` [ethyl 2-methylpropenoate], the Critical pressure is 3170 ± 120 kPa and the Critical temperature is recorded as 572 ± 3 K.

For the molecule `COC(=O)OC` [dimethyl carbonate], the Critical pressure came out at 4450 ± 130 kPa and the Critical temperature came to 556.3 ± 3 K.

On to `c1ccc(Cc2ccccc2)cc1` [diphenylmethane], for which the Critical pressure came to 2920 ± 60 kPa and the Critical temperature is reported as 770 ± 2 K.

As to `CCN(CC)CCO` [(diethylamino)ethanol], the Critical pressure turned out to be 3247 ± 130 kPa and the Critical temperature was 625.9 ± 4 K.

Consider `OCCOc1ccccc1` [2-phenoxyethanol], for which the Critical pressure is on record as 3860 ± 120 kPa and the Critical temperature turned out to be 749.4 ± 2 K.

The same series, now with this note: Liquid; Visual.
On to `C[C@H]1CC[C@H](C)CC1` [trans-1,4-dimethylcyclohexane], for which the Critical molar volume is 0.00042 ± 2e-05 m3/mol and the Critical pressure came to 3060 ± 30 kPa.

On to `CCCCC1CCCCC1` [butylcyclohexane], for which the Critical molar volume is reported as 0.00056 ± 2e-05 m3/mol and the Critical pressure came to 2510 ± 30 kPa.

Turning to `CCCCc1ccccc1` [butylbenzene], the Critical molar volume came out at 0.0005 ± 2e-05 m3/mol and the Critical pressure came out at 2890 ± 30 kPa.

As for `C[C@@H]1CCC[C@H](C)C1` [cis-1,3-dimethylcyclohexane], the Critical molar volume is given as 0.00043 ± 2e-05 m3/mol and the Critical pressure was found to be 3040 ± 30 kPa.

For `CN1CCCC1` [N-methylpyrrolidine], the Critical molar volume was found to be 0.0003 ± 2e-05 m3/mol and the Critical pressure is given as 4000 ± 40 kPa.

Take `CC(C)(C)c1ccccc1` [(1,1-dimethylethyl)benzene]: the Critical molar volume is 0.00048 ± 2e-05 m3/mol and the Critical pressure is recorded as 2900 ± 30 kPa.

Take `C[C@@H]1CCCC[C@@H]1C` [cis-1,2-dimethylcyclohexane]: the Critical molar volume stood at 0.00041 ± 2e-05 m3/mol and the Critical pressure is 3350 ± 30 kPa.

On to `CC(C)(C)C1CCCCC1` [1,1-dimethylethylcyclohexane], for which the Critical molar volume was found to be 0.0005 ± 2e-05 m3/mol and the Critical pressure was determined as 2770 ± 30 kPa.

Still in this series, the particulars now being: Liquid; Visual observation in an unstirred cell.
As to `C[C@H]1CC[C@H](C)CC1` [trans-1,4-dimethylcyclohexane], the Critical temperature is given as 585.84 ± 0.24 K.

Consider `CCCCC1CCCCC1` [butylcyclohexane], for which the Critical temperature is 649.3 ± 0.2 K.

On to `CCCCc1ccccc1` [butylbenzene], for which the Critical temperature turned out to be 660.3 ± 0.2 K.

Turning to `C[C@@H]1CCC[C@H](C)C1` [cis-1,3-dimethylcyclohexane], the Critical temperature is 586.1 ± 0.2 K.

`CN1CCCC1` [N-methylpyrrolidine]: the Critical temperature worked out at 548.62 ± 0.24 K.

On to `CC(C)(C)c1ccccc1` [(1,1-dimethylethyl)benzene], for which the Critical temperature is given as 646.9 ± 0.2 K.

As for `C[C@@H]1CCCC[C@@H]1C` [cis-1,2-dimethylcyclohexane], the Critical temperature turned out to be 607.29 ± 0.24 K.

In the case of `CC(C)(C)C1CCCCC1` [1,1-dimethylethylcyclohexane], the Critical temperature stood at 646.9 ± 0.2 K.

For the origin of these results see the NIST ThermoML archive (doi:10.1021/acs.jced.8b00298).
